pKi: −log10 of the molar value. Counter-ions that a name gives are not always drawn. Marks after values point to notes of the source that are not given here.
Experiments:
Mouse formalin test = assay type: in vivo; conditions: male ddy mouse, 30 mg/kg subcutaneously 15 min before 1% formalin, mean
Procedure: A male ddy strain mouse (4 to 5 weeks old) was kept at a temperature of 21 to 25° C. and a humidity of 45 to 65% in a breeding room under the conditions of a constant lighting cycle (light: 12 hours, dark: 12 hours) while allowing the animal to access a feed and water ad libitum, whereby acclimatizing the animal over a period of 1 week or longer. Each 6 to 7 animals were assigned to each group.
After the mouse was acclimatized to an observation cage sufficiently, it was treated with a test compound, and then after 15 minutes 20 μl of 1% formalin solution was given subcutaneously to a hind limb. The test compound was dissolved in a saline, and immediately given to the mouse subcutaneously at the dose of 0.1 ml per 10 g body weight using a 27G needle. A control group received the physiological saline. The animals were returned to their observation cages, and examined for the duration of the aversive responses such as licking or biting the posterior limb using a stopwatch over a period of 30 minutes.
The significance of the difference was analyzed by the one-way layout analysis of variance between the control group and a treatment group followed by Dunnett's multiple comparison.

[1] = biological target: T1, human nociceptin receptor (Homo sapiens, UniProt P41146); assay: Nociceptin receptor binding test ([3H]-nociceptin); conditions: membranes of human nociceptin receptor expressing cell; 0.08 nM [3H]-nociceptin; 25° C., 60 minutes
T1 construct: expressed in transfected cells
T1 sequence (P41146 whole entry): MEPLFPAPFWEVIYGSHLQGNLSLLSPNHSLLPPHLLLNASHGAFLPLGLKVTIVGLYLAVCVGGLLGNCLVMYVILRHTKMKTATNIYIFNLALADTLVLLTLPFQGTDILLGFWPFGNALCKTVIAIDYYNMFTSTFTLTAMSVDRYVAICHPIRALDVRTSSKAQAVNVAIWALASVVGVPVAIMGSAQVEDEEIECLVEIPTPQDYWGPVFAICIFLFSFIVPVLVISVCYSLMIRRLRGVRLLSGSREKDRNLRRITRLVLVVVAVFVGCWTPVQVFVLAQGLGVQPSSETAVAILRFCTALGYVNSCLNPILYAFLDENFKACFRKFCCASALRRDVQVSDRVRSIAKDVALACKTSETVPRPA
Procedure: Nociceptin Receptor Binding Test
A suspension of cell membrane obtained from a human nociceptin receptor expressing cell was adjusted at a protein concentration of 5 to 10 μg/ml using a Tris-buffer solution [50 mM Tris-HCl (pH 7.8), 5 mM MgCl2, 1 mM EGTA, 0.1% BSA]. The solution was incubated with [^3H]-nociceptin (diluted at the final concentration of 0.08 nM using Tris-buffer) and a test compound at 25° C. for 60 minutes. The membrane was recovered using a cell harvester onto a glass fiber (GF) filter GF/B which had previously been treated with 0.3% polyethyleneimine (PEI), and then washed further 4 times with a washing solution[50 mM Tris-HCl (pH 7.8), 4° C.]. The filter was transferred into a counteing vial. Adequate amount of scintillator was added to the vial and the radioactivity was measured using a liquid scintillation counter. A non-specific binding was regarded as a binding of [^3H]-nociceptin in the presence of 10 μM nociceptin, and a specific binding was regarded as the difference between the total binding and the non-specific binding. Based on the % binding inhibition in the presence of the test compound, an IC50 value was determined, and used together with the Kd value of [^3H]-nociceptin for calculating the Ki value of the test compound.

human μ receptor = biological target: T2, human μ receptor (Homo sapiens, UniProt P35372); assay: μ receptor binding test ([3H]-diprenorphine); conditions: human μ receptor expressing cell membrane preparation; 0.13 nM [3H]-diprenorphine; 25° C., 90 minutes; read-out: μ preceptor Ki
T2 construct: purchased Receptor Biology, Inc
T2 sequence (P35372 whole entry): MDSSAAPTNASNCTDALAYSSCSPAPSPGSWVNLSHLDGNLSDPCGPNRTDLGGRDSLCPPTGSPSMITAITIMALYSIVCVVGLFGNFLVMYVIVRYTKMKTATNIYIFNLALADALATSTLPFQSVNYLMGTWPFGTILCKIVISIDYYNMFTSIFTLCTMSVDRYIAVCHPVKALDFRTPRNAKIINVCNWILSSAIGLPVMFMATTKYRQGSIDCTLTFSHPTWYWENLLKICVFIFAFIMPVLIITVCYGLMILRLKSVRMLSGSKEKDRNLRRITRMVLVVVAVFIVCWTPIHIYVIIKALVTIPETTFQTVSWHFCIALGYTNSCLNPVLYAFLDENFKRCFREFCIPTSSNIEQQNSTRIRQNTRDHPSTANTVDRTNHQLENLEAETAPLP
Procedure: A nociceptin receptor is a member of an opioid receptor family. An inventive compound was examined for its binding capacity to a μ receptor which is also a member of an opioid receptor family and which is involved in an analgesic effect and a dependency, and compared with the binding capacity to the nociceptin receptor.
A human μ receptor expressing cell membrane preparation (Receptor Biology, Inc) was adjusted at the protein concentration of 8.5 μg/ml using a Tris-buffer solution [50 mM Tris-HCl (pH 7.8), 5 mM MgCl2, 1 mM EGTA, 0.1% BSA]. The solution incubated with [^3H]-diprenorphine (diluted at the final concentration of 0.13 nM using Tris-buffer) and a test compound at 25° C. for 90 minutes. The membrane was recovered using a cell harvester onto a GF/B filter which had previously been treated with 0.3% PEI, and then washed further 4 times with a washing solution [50 mM Tris-HCl (pH 7.8), 4° C.]. The filter was transferred into a counting vial. Adequate amount of scintillator was added and the radioactivity was measured using a liquid scintillation counter. A non-specific binding was regarded as a binding of [^3H]-diprenorphine in the presence of 100 μM naloxone, and a specific binding was regarded as the difference between the total binding and the non-specific binding. Based on the % binding inhibition in the presence of the test compound, an IC50 value was determined, and used together with the Kd value of [^3H]-diprenorphine for calculating the Ki value of the test compound.

[2] = 0~10 min after formalin treatment (phase 1)
[3] = 10~30 min after formalin treatment (phase 2)

Structure (SMILES) | Duration of the abersive response (Mouse formalin test; [2]) | Duration of the abersive response (Mouse formalin test; [3]) | pKi [1] | pKi (human μ receptor)
Cc1ccc2nc(C=Cc3ccccn3)nc(N[C@@H]3CC[C@H](N)C[C@@H]3C)c2c1 (relative stereo) [Example 1, cis-4-amino-cis-2-methyl-N-{6-methyl-2-[2-(2-pyridyl)ethenyl]quinazolin-4-yl}cyclohexylamine Trihydrochloride] | 47.5** sec | 74.5* sec | 8.40 | 6.68
COc1ccc2nc(C=Cc3ccc(Cl)cc3)nc(N[C@H]3CCCC[C@H]3N)c2c1 (relative stereo) [Example 25, cis-2-[2-(4-chlorostyryl)-6-methoxyquinazolin-4-yl]aminocyclohexylamine dihydrochloride] |  |  | 6.96 | 6.69
COc1ccc2nc(C=Cc3ccccn3)nc(N[C@@H]3CC[C@H](N)C[C@@H]3C)c2c1 (relative stereo) [Example 51, cis-4-amino-cis-2-methyl-N-{6-methoxy-2-[2-(2-pyridyl)ethenyl]quinazolin-4-yl}cyclohexylamine Trihydrochloride] |  |  | 8.22 | 6.69
Cc1ccc2nc(C=Cc3ccc(Cl)cc3)nc(N[C@H]3CC[C@@H](N)CC3)c2c1 [Example 22, cis-4-[2-(4-chlorostyryl)-6-methylquinazolin-4-yl]aminocyclohexylamine dihydrochloride] |  |  | 7.54 | 6.50
Cc1ccc2nc(C=Cc3ccccn3)nc(N[C@H]3CC[C@@H](N)CC3)c2c1.Cl.Cl.Cl [Example 40, cis-4-{6-methyl-2-[2-(2-pyridyl)ethenyl]quinazolin-4-yl}aminocyclohexylamine Trihydrochloride] | 64.5** sec | 77.6* sec | 7.74 | 6.54
COc1ccc2nc(C=Cc3ccccn3)nc(N[C@H]3CC[C@@H](N)CC3)c2c1 [Example 44, cis-4-{6-methoxy-2-[2-(2-pyridyl)ethenyl]quinazolin-4-yl}aminocyclohexylamine Trihydrochloride] |  |  | 7.64 | 6.31
Cc1ccc2nc(C=Cc3cccc(C)n3)nc(NC3CCC(N)CC3C)c2c1.Cl.Cl.Cl (stereo not drawn) [Example 52, cis-4-amino-cis-2-methyl-N-{6-methyl-2-[2-(6-methyl-2-pyridyl)ethenyl]quinazolin-4-yl}cyclohexylamine Trihydrochloride] | 79.4** sec | 77.0** sec |  | 
Cc1ccc2nc(C=Cc3ccccn3)nc(N[C@@H]3CC[C@H](N)C[C@@H]3C)c2c1 [Example 57, (1R, 2S, 4S)-4-amino-2-methyl-N-{6-methyl-2-[2-(2-pyridyl)ethenyl]quinazolin-4-yl}cyclohexylamine Trihydrochloride] |  |  | 7.38 | 6.55
Cc1ccc2nc(C=Cc3ccccn3)nc(N[C@H]3CC[C@@H](N)C[C@H]3C)c2c1 [Example 58, (1S, 2R, 4R)-4-amino-2-methyl-N-{6-methyl-2-[2-(2-pyridyl)ethenyl]quinazolin-4-yl}cyclohexylamine Trihydrochloride] |  |  | 8.70 | 6.63

Source: patent publication US7220751B2, “Quinazoline derivatives and drugs” (Nippon Shinyaku Co., Ltd., priority 2001, dated 2007)
